Where two headings read alike, the source gives them in different places.

The conditions of data set [1]: cited from earlier work.
A further data set has as its system Oatp transporters. Description: Inhibition of hepatic uptake of compound K by rifampin pre-treatment in ICR mice. The data set is classed as in vivo. The settings on record: rifampin 20 mg/kg PO 1 h before compound K IV 2 mg/kg, 0.5 and 2 h. How it is done: To investigate the effect of rifampin (a representative inhibitor of the organic anion-transporting polypeptide (Oatp) transporters) on the hepatic distribution of compound K, ICR mice and SD rats were randomly divided into either control or rifampin groups. The rifampin group was orally administered with rifampin solution (20 mg/kg, dissolved in DMSO: saline = 2:8, v/v) and the control group received only the vehicle via oral gavage. One hour after rifampin treatment, mice and rats received compound K intravenously at a single dose of 2 mg/kg via tail vein. The animals were euthanized and blood samples (approximately 200 µL) were collected from the abdominal artery at 0.5 and 2 h after intravenous injection. The liver tissues were immediately excised, gently washed with ice-cold saline, and homogenized with 4 volumes of saline. Aliquots (50 μL) of plasma and 20% liver homogenates were stored at −80 °C until the analysis of compound K.
The plasma samples and 20% tissue homogenates samples were each mixed with 60 μL of IS (20 ng/mL 13C-caffeine in water) and 600 μL of MTBE. The mixtures were vortexed vigorously for 10 min and centrifuged at 16,000× g for 5 min. After centrifugation, the samples were frozen at −80 °C for 2 h. The upper layer was transferred to a clean tube and evaporated to dryness under a nitrogen stream. […]

Details of data set [2]: method as in PMID 16302287. The conditions noted are these: rats, cited from earlier work.
A short description of data set [3]: Tissue distribution study after intravenous compound K (2 mg/kg) in SD rats. Type of data set: in vivo. The conditions noted are these: compound K IV 2 mg/kg. The protocol: ICR mice and SD rats received compound K intravenously at a single dose of 2 mg/kg via tail vein and were returned to the metabolic cage with water and chow ad libitum. The animals were euthanized and blood samples (approximately 200 µL) were collected from the abdominal artery at 0.17, 0.5, 2, 4, 8, and 24 h after intravenous injection. The liver, kidney, brain, heart, lung, spleen, and testis were immediately excised, gently washed with ice-cold saline, and weighed. The tissue samples were homogenized with 4 volumes of saline. Aliquots (50 μL) of plasma and 20% tissue homogenates were stored at –80 °C until the analysis of compound K.
The plasma samples and 20% tissue homogenates samples were each mixed with 60 μL of IS (20 ng/mL 13C-caffeine in water) and 600 μL of MTBE. The mixtures were vortexed vigorously for 10 min and centrifuged at 16,000× g for 5 min. After centrifugation, the samples were frozen at −80 °C for 2 h. The upper layer was transferred to a clean tube and evaporated to dryness under a nitrogen stream. The residue was reconfigured with 200 μL of 80% methanol consisting of 0.1% formic acid, and a 10 μL aliquot was injected into the LC-MS/MS system.
Compound K and PPD concentrations were analyzed using a modified LC-MS/MS method of Jin et al. with an Agilent 6430 triple quadrupole LC-MS/MS system (Agilent, Wilmington, DE, USA). […]

Data set [4] is described as follows: Pharmacokinetics, biliary excretion and metabolism of compound K in bile cannulated and non-bile cannulated rats. The data set is classed as in vivo, SD rats. The conditions noted are these: for AUC(0-inf) / half-life / AUC(0-t) / C0: SD, rat, plasma, iv, 2 mg/kg; for AUC(0-t): read-out: AUC12 h; for C0: read-out: C0 (initial plasma concentration). The protocol: SD rats were randomly divided into two groups: the non-bile cannulated control group and the bile cannulated group. For the bile cannulated rats, the femoral artery, femoral vein, and bile duct were cannulated with polyethylene tubes (PE-50 and PE-10; Jungdo, Seoul, Korea) under light anesthesia with isoflurane. For the control group, the femoral artery and femoral vein were cannulated with PE-50. Compound K was injected intravenously via the femoral vein at 2 mg/kg. Blood samples (approximately 200 µL) were collected from the femoral artery at 0, 0.25, 0.5, 1, 2, 4, and 8 h after the compound K injection. After each blood sampling, normal saline was injected into the femoral vein to compensate for blood loss. Bile samples were collected every 2 h for a total of 12 h. The blood samples were centrifuged at 16,000× g for 10 min, and 50 μL aliquots of plasma and 50 μL aliquots of bile were stored at −80 °C until the compound K analysis. In the non-bile cannulated rats, the complete contents of the entire gastrointestinal tract were collected using a […] filled with 30 mL pre-warmed saline. The contents were homogenized with tissue homogenizer, and 50 μL aliquots of intestinal fecal homogenates were stored at −80 °C until the analysis. The 50 μL samples of plasma, urine, 10% fecal homogenates, bile, and intestinal fecal homogenates were each mixed with 60 μL of IS (20 ng/mL 13C-caffeine in water) and 600 μL of methyl tert-butyl ether (MTBE). The mixtures were vortexed vigorously for 10 min and centrifuged at 16,000× g for 5 min. After centrifugation, the samples were frozen at −80 °C for 2 h. […] The residue was reconfigured with 200 μL of 80% methanol consisting of 0.1% formic acid, and a 10 μL aliquot was injected into the liquid chromatography–tandem mass spectrometry (LC–MS/MS) system. Compound K and PPD concentrations were analyzed using a modified LC-MS/MS method of Jin et al. with an Agilent 6430 triple quadrupole LC-MS/MS system (Agilent, Wilmington, DE, USA). […] The mobile phase consisted of 0.1% formic acid in water (8%) and 0.1% formic acid in methanol (92%) at a flow rate of 0.15 mL/min. Pharmacokinetic parameters were estimated using non-compartmental methods (WinNonlin version 2.0, Pharsight Co., Certara, NJ, USA).

Details of data set [5]: method as in PMID 28955238. The conditions noted are these: humans, 200 mg compound K tablet; cited from earlier work.
[6] abbreviates: bile cannulated rat, compound K IV 2 mg/kg.
Where [7] appears, read: non-bile cannulated rat, compound K IV 2 mg/kg.

As a reminder, the Cmax is the peak of the concentration-time curve. What is called AUC(0-inf) is the area under the concentration-time curve extrapolated to infinity. A low value points to low exposure. The half-life is how long it takes for the measured level to halve. With `CC(C)=CCCC(C)(OC1OC(CO)C(O)C(O)C1O)C1CCC2(C)C1C(O)CC1C3(C)CCC(O)C(C)(C)C3CCC12C` [compound K, 20-O-beta-(D-Glucopyranosyl)-20(S)-protopanaxadiol], in data set [1] (12 Japanese subjects, single oral fermented ginseng tablet (274.4 mg total; 2.2 mg as compound K)), the Cmax is on record as 41.5 ng/mL. In addition, the Cmax in data set [1] (subjects given non-fermented Korean red ginseng extract (3 g total; 0 mg as compound K)) is 3.2 to 24.8 ng/mL. Also, in data set [1] (subjects given oral fermented Korean red ginseng (3 g total; 10.9 mg as compound K)), the “mean Cmax” value is on record as 254.5 ng/mL. Moreover, in the data set on Oatp transporters, the “liver to plasma concentration ratios with rifampin pre-treatment versus control” value is “decreased” and the “plasma concentration of compound K with rifampin pre-treatment versus control” value was “increased”. Also, in data set [2] (intravenous injection, dose range 1–10 mg/kg (dose increase 10-fold)), the AUC increase is recorded as 11.6 fold. In addition, the AUC increase in data set [2] (oral administration, dose range 5–20 mg/kg (dose increase four-fold)) is on record as 75.8 fold. Moreover, the “AUC ratios of other tissues (kidney, heart, lung, pancreas, testis, brain) to plasma” value in data set [3] is “much lower than the liver/plasma AUC ratio”. In data set [3] (male, SD, rat, liver (relative to plasma), 0.17-24 h, read-out: liver to plasma AUC ratio), the Kp turned out to be 11.1. Further, in data set [4] (setting [6]), the AUC(0-inf) is 235 ± 126 ng·h/mL, the half-life was 0.78 ± 0.11 h, the AUC(0-t) worked out at 211 ± 87.3 ng·h/mL and the C0 worked out at 436 ± 326 ng/mL. In data set [4] (setting [7]), the AUC(0-inf) worked out at 517 ± 249 ng·h/mL, the half-life is 2.4 ± 0.61 h, the AUC(0-t) came to 496 ± 253 ng·h/mL and the C0 was 451 ± 192 ng/mL. Moreover, in data set [4] (bile cannulated rat, compound K IV 2 mg/kg, bile collected for 12 h), the “Bile12 h (biliary excretion)” value was 39.1 ± 5.7 % of dose. Also, the elimination constant in data set [4] (bile-cannulated rats, one-compartment model, estimated using 5 points, r^2 0.92) was 0.90 h⁻¹. The elimination constant in data set [4] (non-bile cannulated (control) rats, estimated using 3 points, r^2 0.94) is 0.29 h⁻¹. Moreover, in data set [5], the “increase of AUC by high-fat meal compared with fasting group” value is 2.2 fold and the “increase of Cmax by high-fat meal compared with fasting group” value was 2.0 fold.

These data come from paper PMC7076525, “Pharmacokinetics and Intestinal Metabolism of Compound K in Rats and Mice” (Pharmaceutics, 2020).
